The source of these data is PubChem BioAssay (NCI).

Common to all, as to experiment: NCI anticancer screen, dose series, 48 h
Experiment [1] relates to ACHN renal.
Experiment [2] relates to COLO 205 colon.
The subject of experiment [3] is DU-145 prostate.
For experiment [4], the system named is HOP-92 NSCLC.
Experiment [5] has as its system K-562 leukemia.
The test system of experiment [6] is MDA-MB-231 breast.
Experiment [7] has as its system NCI-H226 lung.
The subject of experiment [8] is NCI-H460 lung.
Experiment [9] relates to NCI/ADR-RES ovarian.
Experiment [10] deals with OVCAR-5 ovarian.
The subject of experiment [11] is RXF 393 renal.
For experiment [12], the system named is SN12C renal.
Experiment [13] has as its system SNB-19 CNS.
Experiment [14] deals with TK-10 renal.
The subject of experiment [15] is U251 CNS.
For experiment [16], the system named is UACC-62 melanoma.
For experiment [17], the system named is UO-31 renal.
Experiment [18] deals with SNB-75 CNS.
The subject of experiment [19] is SR leukemia.

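Results reflect a 48-hour exposure of cells in 96-well plates to compound at five concentrations. The concentration for full growth arrest is given as TGI.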 Bounds are passed on as bounds.

Take `c1ccc(C2=NN=C3C(c4ccccc4)=Nc4ccccc4N3C2)cc1`: the TGI in experiment [1] is more than 100 µM; in [2] it was 52.8 µM; in [3] it was more than 100 µM; in experiment [4], more than 88.9 µM; in experiment [5], more than 100 µM; in [6], more than 100 µM. Further, the TGI in experiment [7] is more than 70.2 µM; in experiment [8], 23.5 µM; in experiment [9] it was more than 100 µM; in experiment [10] it was more than 94.3 µM; in experiment [11] it was more than 100 µM; in experiment [12], more than 100 µM. Also, the TGI in experiment [13] was more than 100 µM; in [14], 43.4 µM; in [15], more than 100 µM; in [16], more than 100 µM; in [17], more than 59.4 µM.
Consider `CNC(=O)CCCNC(=O)CCCCC(=O)N(C)C`, for which the TGI in [1], in experiment [2], in experiment [3], in experiment [5], in experiment [6] and in experiment [8] was more than 100 µM in each case. In addition, the TGI in experiment [9], in experiment [10], in experiment [11], in experiment [12], in experiment [13] and in experiment [14] was more than 100 µM in each case. Further, the TGI in experiment [15], in [16] and in experiment [17] was more than 100 µM in each case.
As for `COc1c2cc([N+](=O)[O-])cc1CN(C(=O)C(F)(F)F)CCOCCN(C(=O)C(F)(F)F)C2`, the TGI in [1], in experiment [2], in [3], in experiment [4], in [6] and in experiment [7] was more than 100 µM throughout. Further, the TGI in [8], in [10], in experiment [12], in experiment [13], in experiment [18] and in experiment [14] was more than 100 µM in each case. In addition, the TGI in experiment [15], in experiment [16] and in [17] was more than 100 µM in each case.
With `CC(=Nc1cccc(Cl)c1)c1ccncc1`, the TGI in experiment [1], in experiment [2], in experiment [3], in [4], in experiment [5] and in experiment [6] was more than 100 µM each time. Also, the TGI in experiment [7], in [8], in experiment [9], in experiment [10], in [11] and in experiment [12] was more than 100 µM in each case. Further, the TGI in experiment [13], in [18], in [14], in [15], in experiment [16] and in experiment [17] was more than 100 µM each time.
For `O=C(Cn1c2c(c3ccccc31)CCCC2)N1CCCCC1`, the TGI in experiment [1], in [2], in experiment [4], in experiment [8], in experiment [9] and in experiment [10] was more than 100 µM in each case. Further, the TGI in experiment [12], in experiment [13], in experiment [19], in [14], in experiment [16] and in [17] was more than 100 µM in each case.
`CCOC(=O)c1c(N2CCOCC2)ncn(-c2cccc(Cl)c2)c1=O`: the TGI in experiment [1], in experiment [2], in experiment [3], in experiment [4], in [5] and in [6] was more than 100 µM each time. The TGI in experiment [7], in experiment [8], in experiment [9], in [10], in experiment [11] and in experiment [12] was more than 100 µM throughout. In addition, the TGI in [13], in experiment [18], in [14], in [15] and in [16] was more than 100 µM in each case.
Consider `C/C(O)=C(\C=NC(=S)c1cccnc1)C(=O)Nc1ccccc1C`, for which the TGI in [1], in [2], in experiment [3], in experiment [4], in experiment [5] and in [6] was more than 100 µM in each case. In addition, the TGI in [7], in experiment [8], in experiment [9], in [10], in experiment [11] and in [12] was more than 100 µM throughout. Besides, the TGI in [13], in experiment [18], in experiment [14], in experiment [15], in experiment [16] and in experiment [17] was more than 100 µM each time.
Take `COc1cc2c(c(OC)c1OC)C(=O)[C@@H](O)[C@H]2NC(N)=O`: the TGI in experiment [1], in experiment [2], in experiment [3], in experiment [5], in experiment [6] and in experiment [7] was more than 100 µM throughout. For the same molecule, the TGI in experiment [8], in [9], in experiment [10], in experiment [11], in experiment [12] and in [13] was more than 100 µM in each case. In addition, the TGI in experiment [18], in [14], in [15], in experiment [16] and in [17] was more than 100 µM each time.
